The results in this text go back to ChEMBL document CHEMBL1136681, “[3H]-(R)-NPTS, a radioligand for the type 1 glycine transporter” (Bioorg Med Chem Lett, 2003).

This experiment is described as follows: Inhibition of [3-H]-glycine uptake into rat synaptosomes. The class given is subcellular, Brain.

As a reminder, the IC50 is the midpoint of a concentration-inhibition curve. A higher IC50 goes with weaker potency. `CN(CCC(Oc1ccc(-c2ccccc2)cc1)c1ccc(F)cc1)CC(=O)O` (configuration not stated): the IC50 was determined as 36.4 nM.

The compound `Cc1ccc(C(=O)c2ccc(OC(CCN(C)CC(=O)O)c3ccccc3)cc2)cc1` (configuration not stated) returned an IC50 of 153 nM.
